Test results: patent US20260151398A1, “COMPOUNDS FOR REDUCING CHOLESTEROL AND TREATING LIVER AND KIDNEY DISEASE” (McMaster University, priority 2021, published 2026)
“Also recorded” adds a separate entry of the source.

Assays:
[1] = test system: HepG2 hepatocytes; experiment: LDH cytotoxicity assay in HepG2 hepatocytes; format: cell-based, human; settings: cultured HepG2 hepatocytes
Protocol: Secreted PCSK9 levels were assessed using ELISAs and mRNA transcript via real-time PCR. […] Secreted PCSK9, as well as PCSK9 mRNA and SREBP2 mRNA were assessed in these cells. (E) The cytotoxicity of these agents was examined using an LDH assay. […] (G) The uptake of DiI-LDL was also quantified in these cells using a spectrophotometer. Values are presented as the mean and error bars as SD. *, p<0.05 vs. vehicle; NS, non-significant.

[2] = test system: HMGR, SREBP1, hepatocyte nuclear factor 1α; experiment: mRNA expression of HMGR, SREBP1 and hepatocyte nuclear factor 1α in hepatocytes; format: cell-based, mouse
Protocol: (§1) RNA purification/isolation was performed using RNeasy mini kits (Qiagen) and normalized to 2 μg RNA using a NanoDrop® spectrophotometer. Samples were then reverse transcribed into cDNA using Superscript Vilo cDNA Synthesis kit (Thermofisher Scientific). Real-time PCR was executed with Fast SYBR Green (Thermo Fisher Scientific) using the ΔΔct method on the ViiA7 real-time PCR platform (Thermofisher Scientific).
Therefore, the effect of CF on TG-; induced SREBP2 activation was examined. […] SREBP2 activity was then examined at the protein level in HuH7 cells transfected with a plasmid encoding GFP driven by the sterol regulatory element (SRE-GFP; FIG. 2E to G). […] GFP expression was also visualized via immunofluorescent staining and quantified using ImageJ Software.

[3] = test system: AMPK; experiment: AMPK phosphorylation in livers of CF-treated mice; format: in vivo, mouse; settings: C57BL/6J mice, CF 100 mg/kg, 8 hours
Protocol: All animal studies were carried out in 8 h-fasted male wild-type, Pcsk9^−/− or Ampkβ1^−/− mice on the C57BL/6J background. CF (25-100 mg/kg-8 h) and CDN (50 mg/kg) treatments were administered via intraperitoneal injection unless specified otherwise. Primary mouse hepatocytes were isolated using a two-step process with EGTA ([…] in HEPES buffer, Sigma Aldrich) and collagenase (0.05% in HEPES buffer, Sigma Aldrich) in 12-week-old male mice on the C57BL/6J background. Cells were then washed, centrifuged, and plated following isolation in cell strainers. Hepatosure® 100-donor pooled primary human hepatocytes were purchased from Xenotech. Primary hepatocytes were regularly grown in William's E medium (Gibco, Thermo Fisher Scientific) containing 10% fetal bovine serum, 100 IU/ml penicillin, and 100 µg/ml streptomycin.
Previous studies have also shown that CF can promote the phosphorylation and activation of AMPK (Quan, H. Y., et al., 2013; Tsuda, S., et al., 2015), a liver-expressed kinase known to induce the inhibitory phosphorylation of SREBP1c (Li, Y., et al., 2011). […] Primary mouse hepatocytes were then isolated from wildtype (WT) and Ampkβ1−/− mice (Dzamko, N., et al., 2010).

[4] = test system: HepG2 cells; experiment: DiI-LDL uptake assay in HepG2 cells; format: cell-based, human
Protocol: During the last 5 h of treatment (h 19 to 24) cells were exposed to DiI-LDL (10 μg/ml) and then washed with two changes of pre-warmed (37° C.) HBSS containing 20 mM HEPES prior to analysis.
(§2) The uptake and accumulation of DiI-LDL was then quantified using a fluorescent spectrophotometer (Molecular Devices). […] Live-cell staining of the LDLR was also performed in HepG2 cells exposed to DiI-LDL (FIG. 11 D).

[5] = test system: total secreted protein; experiment: Coomassie stain of medium for total secreted protein; format: cell-based; settings: Coomassie stain of medium of CF-treated cells
Protocol: Cultured immortalized hepatocytes known to express and secrete PCSK9 (Lebeau, P., et al., 2017), including HuH7 and HepG2 cells, as well as primary mouse- and human-hepatocytes (PMH and PHH, respectively), were treated with CF for 24 h and assessed for PCSK9 expression via immunoblots and real-time PCR (FIG. 1 A to D). […] Given that sterol deprivation represents another well-established promoter of SREBP2 activation (Lebeau, P., et al., 2017), cells were also treated with CF in the presence and absence of U18666A (U18) that depletes intracellular sterols. […] Next, HepG2 cells were treated with an increasing dose of CF.

[6] = test system: PCSK9; experiment: Secreted PCSK9 levels in HepG2 cells (ELISA); format: cell-based, human
Protocol: HuH7 and HepG2 cells were routinely grown in complete Dulbecco's Modified Eagle's Medium (Gibco, Thermofisher Scientific) supplemented with 10% fetal bovine serum (Sigma-Aldrich) and 100 U/ml of penicillin and streptomycin (Sigma-Aldrich). […] All cell treatments were carried out for 24 h unless otherwise stated. Cells were transfected with a cocktail consisting of plasmid DNA (1 μg), X-tremeGENE HP (3 μl; Thermofisher Scientific) and opti-MEM (100 μl; Thermofischer Scientific) per 1 ml complete medium containing plated cells. Human PCSK9 was overexpressed using the bicistronic pIRES-EGFP plasmid; calnexin using the mPA-GFP-N1 plasmid. To block the expression of GRP78 and CD36, siGENOME smartpool siRNA was purchased from GE Dharmacon (M-008198-02 and L-010206-00-0005 respectively) and transfected using lipofectamine RNAiMAX as per manufacturer's protocol.
Secreted PCSK9 levels were assessed directly in cell culture medium of cells grown in FBS-free medium for 24 h or in the serum isolated from either mice or human subjects. Mouse PCSK9 was measured using the Quantikinine® ELISA kit (#MCP900, R&D Systems) and human PCSK9 using the PCSK9 Quantikinine® ELISA kit (#DCP900, R&D Systems). Serum ApoB levels were also quantified using ELISAs (#DAPB00, R&D Systems). Serum samples were diluted as per manufacturer's instructions.
CF, however, is a well-characterized compound having several health benefits with few known adverse effects. Achieving an optimal level of PCSK9 inhibition absent of the neuro-excitatory effect of CF, however, may be a challenge for the long-term clinical application of these findings. […] See Table 6 for the structure activity relationships of several other known xanthine-based compounds explored at varying doses in HepG2 cells for 24 h.

[7] = test system: LDLR; experiment: LDLR / CD36 expression in cultured hepatocytes; format: cell-based, human
Text: Cells were washed in phosphate-buffered saline (PBS), lysed in 4× SDS-PAGE lysis buffer and separated on 7-10% polyacrylamide gels in denaturing conditions. […] Membranes were then exposed to horse radish peroxidase conjugated secondary antibodies and visualized using EZ-ECL chemiluminescent reagent (Froggabio). Band intensities were quantified using ImageJ software ([…]) against membranes reprobed for housekeeping proteins.
Slides were then mounted with permafluor and visualized using the EVOS FL colour imaging system at either 20 or 40× magnification.
as §1, §2

Structure (SMILES): Cn1c(=O)c2c(ncn2C)n(C)c1=O [caffeine, 1,3,7-Trimethylxanthine]
- cytotoxicity (LDH assay) [1]: did not exhibit cytotoxic properties
- SREBP1 expression ([2]; PMH): blocked the expression
- hepatocyte nuclear factor 1α expression ([2]; absence of TG): did not yield a significant difference
- HMGR expression ([2]; mouse hepatocytes): blocked the expression
- phosphorylation of AMPK (pAMPK) and pACC in liver [3]: induced the phosphorylation and activation of AMPK
- LDLc (DiI-LDL) uptake ([4]; HepG2, 24 h treatment, DiI-LDL 5 h): increased LDLc uptake
- LDLc uptake in PCSK9 shRNA cells ([4]; HepG2 stably transfected with PCSK9 shRNA, CF 200 μM): failed to significantly increase LDLc uptake
- global protein secretion [5]: not affecting global protein secretion
- PCSK9 secretion from cells transfected with CMV-driven PCSK9 vector ([6]; HepG2, CF 1 mM, listed as CF): failed to block the secretion of PCSK9; also recorded: does not affect CMV-driven PCSK9 expression
- PCSK9 secretion in Ca^2+-deficient medium ([6]; HepG2, Ca^2+-deficient medium 48 h): failed to antagonize PCSK9 secretion
- LDLR mRNA transcript levels ([7]; HuH7 and HepG2): reduced mRNA transcript levels of the LDLR
- expression of PCSK9-regulated receptors (LDLR, CD36) ([7]; cultured hepatocytes, CF 200 μM, immunoblots): increased the expression of PCSK9-regulated receptors
